From ChEMBL document CHEMBL1201862, “PubChem BioAssay data set” (2004)
The source made the active and inactive calls.

Columns and labels:
[1] = system: BJ; assay: BJ-TERT fibroblast viability loss – cell-based, RAS-independent, luminescence, dose response (AID 1933); format: functional; conditions: Homo sapiens
[2] = HEK-293T viability loss after treatment – luminescence, T-cell screen hits, cytotoxicity control for TCR NF-kB inhibitor project, dose response (AID 489026); format: functional, cell-based;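 further: cells exposed to compound about 14 hours before the viability readout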
[3] = reduction of Shn3 3'UTR-driven luciferase in osteoblasts – cell-based, Clone20 osteoblasts, firefly luciferase, cherry-picked, dose response (AID 624132); format: functional;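 further: firefly luciferase luminescence from reporter carrying the Shn3 3'UTR in osteoblasts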
[4] = system: BJ; assay: BJ-TERT-LT-ST fibroblast viability loss – cell-based, RAS-independent, luminescence, dose response (AID 1935); format: functional; conditions: Homo sapiens;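 further: BJ fibroblasts immortalized with TERT plus LT and ST oncogenes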
[5] = system: BJ; assay: cells; format: functional, cell-based; conditions: Homo sapiens
[6] = biological target: Paired box protein Pax-8 (Homo sapiens, UniProt Q06710); assay: PAX8 transcriptional activity inhibition in RMG-I – RMG-I cells, luciferase, cherry-pick, dose response (AID 687027); format: functional, cell-based;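 further: luciferase reporter driven by Pax8 target thyroperoxidase promoter measured by SteadyGlo luminescence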
[7] = viability loss of HPDE-C7K cells – cell-based, fluorescence, HTS, primary screen (AID 431); format: functional; conditions: Homo sapiens
[8] = DRD fibroblast viability loss – cell-based, non-viral oncogenic, luminescence, dose response (AID 1934); format: functional; conditions: Homo sapiens
[9] = loss of viability in HepG2 cells – cell-based, CellTiter-Glo, cherry-picked, cytotoxicity control for Shn3 inhibitor project, dose response (AID 624134); format: functional
[10] = general cell-killing toxicity readout – plate reader, dry powder samples, cytotoxicity control for PAX8 inhibitor project, dose response (AID 743021); format: functional, cell-based
[11] = non-specific 3'UTR reporter inhibition in Clone20-Shn3RL – cell-based, Renilla luciferase, cherry-picked, counter-screen for Shn3 inhibitor project, dose response (AID 624133); format: functional
[12] = HPDE-C7 pancreatic duct cell viability loss – fluorescence, HTS (AID 430); format: functional, cell-based; conditions: Homo sapiens
[13] = biological target: Estrogen receptor beta (Homo sapiens, UniProt Q92731);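 further: recombinant ER-beta bound to coactivator SRC1 peptide in presence of estradiol agonist; inhibitors block coactivator peptide binding and lower the FRET signal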
[14] = HIV-1 Vif–A3G interaction blockers – biochemical, TR-FRET, GST-Vif 1-94, biotin-A3G peptide, dose response retest, primary screen (AID 1117319); format: functional;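 further: TR-FRET signal of purified GST-Vif binding a biotinylated A3G peptide; inhibitors lower the FRET signal by blocking Vif and A3G binding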
[15] = Luminescence-based cell-based high throughput dose response assay to identify activators of the DAF-12 from the parasite S. stercoralis (ssDAF-12).; format: functional
[16] = biological target: T1, Heat shock factor protein 1 (Mus musculus, UniProt P38532); assay: enhancement of HSF1-driven luciferase signal – cell-based, NIH3T3, luminescence, dose retest, confirmation (AID 435004); format: functional;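 further: stress induced by proteasome inhibitor MG132 added 30 min after compound; luciferase reporter driven by HSF1 response element in NIH3T3 cells; actives raise luminescence as potentiators of the MG132 stress response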
T1 sequence (P38532 whole entry): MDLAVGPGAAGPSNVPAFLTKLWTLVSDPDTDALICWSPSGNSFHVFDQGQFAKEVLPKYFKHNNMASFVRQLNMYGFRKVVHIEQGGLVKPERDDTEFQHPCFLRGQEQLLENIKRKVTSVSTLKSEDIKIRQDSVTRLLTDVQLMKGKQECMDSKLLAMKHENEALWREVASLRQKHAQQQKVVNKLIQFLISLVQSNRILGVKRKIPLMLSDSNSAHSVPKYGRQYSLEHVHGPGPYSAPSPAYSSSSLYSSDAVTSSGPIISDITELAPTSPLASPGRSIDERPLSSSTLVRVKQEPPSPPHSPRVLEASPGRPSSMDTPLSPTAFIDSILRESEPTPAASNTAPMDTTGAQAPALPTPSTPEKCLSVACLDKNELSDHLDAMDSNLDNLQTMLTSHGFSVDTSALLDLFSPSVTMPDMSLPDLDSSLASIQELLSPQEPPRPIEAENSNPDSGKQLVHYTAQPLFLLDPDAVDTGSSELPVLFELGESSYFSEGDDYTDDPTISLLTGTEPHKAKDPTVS

[17] = biological target: T2, Oxysterols receptor LXR-beta (Homo sapiens, UniProt P55055); assay: LXR agonists, Gal4 luciferase reporter, dose response, counter-screen for ssDAF-12 agonist project, cell-based, luminescence, HEK293, S. stercoralis campaign (AID 720737); format: functional; conditions: read-out: IC50 (the source's name)
T2 sequence (P55055 whole entry): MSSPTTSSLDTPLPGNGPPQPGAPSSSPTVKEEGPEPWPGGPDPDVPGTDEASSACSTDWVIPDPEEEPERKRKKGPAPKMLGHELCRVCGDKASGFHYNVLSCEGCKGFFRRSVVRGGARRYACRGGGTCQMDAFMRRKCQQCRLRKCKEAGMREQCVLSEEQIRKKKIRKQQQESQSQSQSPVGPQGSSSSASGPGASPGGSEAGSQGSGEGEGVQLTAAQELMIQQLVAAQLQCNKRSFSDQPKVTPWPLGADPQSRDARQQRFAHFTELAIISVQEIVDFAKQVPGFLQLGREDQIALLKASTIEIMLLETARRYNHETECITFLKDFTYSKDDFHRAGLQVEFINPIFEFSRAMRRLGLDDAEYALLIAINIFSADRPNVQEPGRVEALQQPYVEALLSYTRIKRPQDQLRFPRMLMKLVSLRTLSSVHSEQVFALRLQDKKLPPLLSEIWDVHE

[18] = viability loss in A549 lung cancer cells – cell-based, cherry-picks, […], cytotoxicity control, dose response (AID 1053119); format: functional
[19] = viability loss in HEK293 kidney cells – cell-based, cherry-picks, set 5, cytotoxicity control, dose response (AID 1053117); format: functional
[20] = P. falciparum Dd2 growth inhibitors, dose response, SYBR Green, cherry-picked samples (AID 1159567); format: functional, cell-based
[21] = viability loss in HepG2 hepatoma cells – cell-based, cherry-picks, set 5, cytotoxicity control, dose response (AID 1053118); format: functional
[22] = toxicity to human hepatoma HepG2 cells – cell-based, cherry-picked samples, cytotoxicity control, dose response (AID 1159577); format: functional
[23] = Luminescence Cell-Based Dose Response HTS to Identify Activators of Luciferase Translation or Activity in H4 […] Cells. [Related pubchem assays: 1829 (Project Summary), 1814 (Primary HTS)]; format: functional
[24] = system: H4; assay: Luminescence Cell-Based Dose Response HTS to Identify Activators of 5'UTR Stem-Loop Driven Prion Protein mRNA Translation in H4 Neuroglioblastoma Cells. [Related pubchem assays: 1829 (Project Summary), 1814 (Primary HTS)]; format: functional; conditions: Homo sapiens
[25] = Luminescence Cell-Based Dose Response to Identify Activators of Luciferase Translation or Activity in H4-C Neuroglioblastoma Cells. [Related pubchem assays: 1829 (Project Summary), 1814 (Primary HTS)]; format: functional
[26] = Luminescence Cell-Based Dose Response to Identify Activators of 5'UTR Stem-Loop Driven Prion Protein mRNA Translation in H4-C Neuroglioblastoma Cells. [Related pubchem assays: 1829 (Project Summary), 1814 (Primary HTS)]; format: functional
[27] = Luminescence Cell-Based Dose Confirmation to Identify Activators of 5'UTR Stem-Loop Driven Alpha-Synuclein mRNA Translation in H4 Neuroglioblastoma Cells. [Related pubchem assays: 1829 (Project Summary), 1814 (Primary HTS)]; format: functional
[28] = growth inhibition of PfATP4-mutant resistant parasites – NITD609-resistant line, SYBR Green, dry powder, dose response (AID 1159571); format: functional, cell-based;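 further: parasites synchronized at ring stage by sorbitol before testing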
[29] = growth inhibition of yeast DHODH-expressing 3D7 parasites – SYBR Green, dry powder samples, dose response (AID 1159570); format: functional, cell-based;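 further: parasite growth measured after 72 hours of compound exposure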
[30] = toxicity to human HepG2 hepatoma cells – cell-based, plate reader, dry powder samples, cytotoxicity control, dose response (AID 1159569); format: functional;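 further: inhibitor potency with signal falling toward the positive control level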
[31] = Dd2 malaria parasite growth inhibition potency – SYBR Green, dry powder samples, dose response (AID 1159566); format: functional, cell-based;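 further: potency for growth inhibition with lower SYBR green DNA signal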
[32] = viability loss in human Jurkat cells – cell-based, luminescence, cytotoxicity control for P. falciparum gametocyte viability project, dose response (AID 1117277); format: functional;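 further: potency reflects loss of cellular ATP meaning fewer viable cells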
[33] = viability inhibitors of stage V gametocytes – luminescence, dose response (AID 1117278); format: functional, cell-based;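 further: gametocytes exposed to compound for 24 hours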
[34] = NIH3T3 cell viability loss – ATP luminescence, mouse fibroblasts, counter-screen, dose response (AID 2010); format: functional, cell-based;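 further: cells exposed to compound for about 90 hours before reading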
[35] = Trypanosoma cruzi growth suppression in host cells – NIH3T3 host cells, beta-gal luminescence, confirmation (AID 2044); format: functional, cell-based;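 further: intracellular parasites grown in NIH/3T3 mouse fibroblasts as host cells; luminescent beta-galactosidase reporter signal from transgenic T. cruzi replicating inside host cells; inhibitors lower the luminescence signal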
[36] = cells
[37] = biological target: T3, Probable nicotinate-nucleotide adenylyltransferase (Staphylococcus aureus (strain N315), UniProt P65502); format: functional, Staphylococcus aureus subsp. aureus N315;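 on IC50 Mean: confirmatory dose-response retesting of NadD inhibitor hits first found in an ultra-high-throughput screen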
[38] = biological target: Ephrin type-A receptor 4 (Mus musculus, UniProt Q03137); assay: EphA4 ligand-binding antagonists – biochemical, colorimetric, mouse EphA4, primary screen (AID 689); format: functional
[39] = biological target: T3, Probable nicotinate-nucleotide adenylyltransferase; format: functional, Staphylococcus aureus subsp. aureus N315; conditions: read-out: IC50_Mean
[40] = Luminescence Cell-Based Dose Confirmation HTS to Identify Activators of 5'UTR Stem-Loop Driven Alpha-Synuclein mRNA Translation in H4 Neuroglioblastoma Cells. [Related pubchem assays: 1829 (Project Summary), 1814 (Primary HTS)]; format: functional
[41] = biological target: Sphingosine 1-phosphate receptor 2 (Homo sapiens, UniProt O95136); assay: Dose Response Cell Based Assay for Antagonists of the S1P2 Receptor. [Related pubchem assays: 856, 736 ]; format: functional
[42] = system: INS1; assay: INS-1E survival protection against cytokine death – cell-based, luminescence, retest, dose response (AID 449756); format: functional; conditions: Rattus norvegicus;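 further: cell death triggered by IL-1 beta plus TNF-alpha plus IFN-gamma mixture; protective hits raise ATP signal compared with cytokine alone wells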
[43] = cells; remark: listed apart in the source
[44] = biological target: T2, Oxysterols receptor LXR-beta; format: functional, cell-based

T3 sequence (P65502 whole entry): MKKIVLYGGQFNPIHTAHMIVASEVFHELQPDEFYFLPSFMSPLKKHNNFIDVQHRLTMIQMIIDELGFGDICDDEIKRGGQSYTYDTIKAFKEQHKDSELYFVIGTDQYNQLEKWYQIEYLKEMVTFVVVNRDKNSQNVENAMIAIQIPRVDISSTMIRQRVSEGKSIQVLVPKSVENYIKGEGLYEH
Sequence of Paired box protein Pax-8 (Q06710 whole entry): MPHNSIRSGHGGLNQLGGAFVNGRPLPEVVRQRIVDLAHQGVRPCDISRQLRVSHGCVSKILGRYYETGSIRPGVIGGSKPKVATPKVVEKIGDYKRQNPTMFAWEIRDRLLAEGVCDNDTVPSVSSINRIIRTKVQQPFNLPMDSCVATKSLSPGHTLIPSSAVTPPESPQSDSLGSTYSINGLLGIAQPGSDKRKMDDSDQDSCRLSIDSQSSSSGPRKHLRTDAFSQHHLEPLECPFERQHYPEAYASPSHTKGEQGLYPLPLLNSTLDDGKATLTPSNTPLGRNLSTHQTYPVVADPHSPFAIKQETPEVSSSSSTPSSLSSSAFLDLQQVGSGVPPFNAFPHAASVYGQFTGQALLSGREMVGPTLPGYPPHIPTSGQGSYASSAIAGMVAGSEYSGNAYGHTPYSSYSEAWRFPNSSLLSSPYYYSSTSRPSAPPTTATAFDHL
Sequence of Estrogen receptor beta (Q92731 whole entry): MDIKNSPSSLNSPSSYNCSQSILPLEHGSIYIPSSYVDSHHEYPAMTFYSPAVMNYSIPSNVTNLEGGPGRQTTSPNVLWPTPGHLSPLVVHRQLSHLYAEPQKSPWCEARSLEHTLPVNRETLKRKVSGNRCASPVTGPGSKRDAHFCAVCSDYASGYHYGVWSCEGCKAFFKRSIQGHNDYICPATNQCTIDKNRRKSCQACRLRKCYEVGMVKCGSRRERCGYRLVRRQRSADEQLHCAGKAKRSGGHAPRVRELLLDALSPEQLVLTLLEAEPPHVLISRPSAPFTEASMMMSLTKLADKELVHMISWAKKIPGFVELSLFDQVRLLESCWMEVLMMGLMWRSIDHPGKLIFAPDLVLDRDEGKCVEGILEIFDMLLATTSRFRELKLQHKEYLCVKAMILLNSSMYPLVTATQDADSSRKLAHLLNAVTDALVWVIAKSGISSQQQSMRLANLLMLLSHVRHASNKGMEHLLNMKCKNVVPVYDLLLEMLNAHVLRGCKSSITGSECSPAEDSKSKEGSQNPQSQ
Sequence of Ephrin type-A receptor 4 (Q03137 whole entry): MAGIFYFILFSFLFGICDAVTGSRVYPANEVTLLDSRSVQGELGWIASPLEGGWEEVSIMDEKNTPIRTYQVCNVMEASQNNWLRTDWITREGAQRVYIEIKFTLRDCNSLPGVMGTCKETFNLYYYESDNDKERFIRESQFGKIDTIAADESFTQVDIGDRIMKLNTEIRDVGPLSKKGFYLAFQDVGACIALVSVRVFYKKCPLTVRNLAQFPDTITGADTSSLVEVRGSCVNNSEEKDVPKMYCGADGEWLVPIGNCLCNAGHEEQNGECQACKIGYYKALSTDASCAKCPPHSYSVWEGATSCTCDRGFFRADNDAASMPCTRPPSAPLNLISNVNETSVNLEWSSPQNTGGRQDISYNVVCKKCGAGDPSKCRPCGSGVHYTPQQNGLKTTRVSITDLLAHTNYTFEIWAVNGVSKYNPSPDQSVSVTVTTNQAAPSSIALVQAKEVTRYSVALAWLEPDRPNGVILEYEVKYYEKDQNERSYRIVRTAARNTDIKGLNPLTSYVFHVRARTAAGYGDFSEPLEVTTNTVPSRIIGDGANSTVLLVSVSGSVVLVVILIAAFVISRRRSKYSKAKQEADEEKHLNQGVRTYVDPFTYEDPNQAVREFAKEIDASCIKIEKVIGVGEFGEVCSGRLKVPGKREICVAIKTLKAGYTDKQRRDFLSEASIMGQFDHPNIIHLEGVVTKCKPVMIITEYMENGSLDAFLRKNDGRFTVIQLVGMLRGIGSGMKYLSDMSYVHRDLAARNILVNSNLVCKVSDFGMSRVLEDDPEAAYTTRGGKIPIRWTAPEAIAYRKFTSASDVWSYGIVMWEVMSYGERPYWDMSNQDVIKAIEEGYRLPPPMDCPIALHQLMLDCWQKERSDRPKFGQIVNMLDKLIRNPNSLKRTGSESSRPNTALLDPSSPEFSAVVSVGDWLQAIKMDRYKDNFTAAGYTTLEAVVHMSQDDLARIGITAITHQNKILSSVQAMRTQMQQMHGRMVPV
Sequence of Sphingosine 1-phosphate receptor 2 (O95136 whole entry): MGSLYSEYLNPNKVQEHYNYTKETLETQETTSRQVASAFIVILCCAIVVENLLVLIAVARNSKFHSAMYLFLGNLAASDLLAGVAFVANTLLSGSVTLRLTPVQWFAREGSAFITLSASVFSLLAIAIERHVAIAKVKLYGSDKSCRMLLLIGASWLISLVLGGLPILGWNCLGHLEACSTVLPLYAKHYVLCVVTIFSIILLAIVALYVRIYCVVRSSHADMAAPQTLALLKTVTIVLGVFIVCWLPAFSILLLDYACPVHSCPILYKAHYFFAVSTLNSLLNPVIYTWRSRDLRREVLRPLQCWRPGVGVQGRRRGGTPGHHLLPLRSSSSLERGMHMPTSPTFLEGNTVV

COc1cccc(N2CCN(c3ncnc4c3cnn4-c3ccc(C)cc3C)CC2)c1
EC50 [1]: 14.4 µM (active) | IC50 [2]: 3.73 µM (active) | AC50 [3]: 4.65 µM (active) | EC50 [4]: > 150 µM (inconclusive) | EC50 [5]: 16.8 µM (active) | AC50 [6]: 6.38 µM (active) | EC50 [7]: 3.17 µM (active) | EC50 [8]: 11 µM (active) | AC50 [9]: 37.2 µM (active) | AC50 [10]: 17.5 µM (active) | AC50 [11]: 4.03 µM (active) | EC50 [12]: 3.78 µM (active)

C=CCN1C(=O)NC(=O)/C(=C(/CC)NCc2cccnc2)C1=O
IC50 [13]: > 50 µM (not active)

O=C(Cn1nc(-c2ccc(Cl)cc2)ccc1=O)NCc1ccc2c(c1)OCO2
IC50 [14]: > 100 µM (active)

O=c1[nH][nH]c2cc(=O)n(-c3cccc(C(F)(F)F)c3)nc12
IC50 [15]: > 67.5 µM (inactive) | EC50 [16]: > 260 µM (inactive) | EC50 [17]: > 67.5 µM (inactive)

CO[C@@H]1CN(C)C(=O)c2ccc(NC(=O)c3ccc(-c4ccccc4)cc3)cc2OC[C@H](C)NC[C@@H]1C
AC50 [18]: 16.2 µM (active) | AC50 [19]: 18.1 µM (active) | AC50 [20]: 4.99 µM (active) | AC50 [21]: 12.2 µM (active) | AC50 [22]: 8.05 µM (active)

O=C(Nc1cccc(Cn2cccn2)c1)c1cc2c(s1)CCCC2
EC50 [23]: < 0.1 µM (active) | EC50 [24]: 10.9 µM (active) | EC50 [25]: 0.853 µM (active) | EC50 [26]: > 12 µM (not active) | EC50 [27]: 0.651 µM (active)

N#C[C@H]1[C@H](c2ccc(-c3cccc(F)c3)cc2)[C@H](CO)N1C(=O)c1cccnc1
AC50 [28]: 0.69 µM (active) | AC50 [20]: 1.16 µM (active) | AC50 [29]: 1.33 µM (active) | AC50 [30]: 76.8 µM (active) | AC50 [31]: 0.641 µM (active) | AC50 [22]: > 39 µM (inactive)

COc1ccc(Cl)cc1C(=O)CSc1nnnn1C1CCCCC1
IC50 [32]: 10.9 µM (inactive) | IC50 [33]: > 109 µM (inactive)

CCc1ccc(CN2CCCC(CCC(=O)N3CCN(c4ccccn4)CC3)C2)o1 (stereo not drawn)
EC50 [34]: > 60 µM (not active) | EC50 [35]: < 0.1 µM (active) | EC50 [36]: 0.021 µM (active)

NCCN1CCN(CCN)CC1
IC50 [32]: > 83.4 µM (inactive) | IC50 [33]: > 109 µM (inactive)

CC(C)CC(C(=O)Nc1oc(-c2ccco2)c(-c2ccco2)c1C#N)N1C(=O)c2ccccc2C1=O (stereo not drawn)
IC50 [37]: 16.4 µM (active) | IC50 [38]: > 100 µM (not active) | IC50 [39]: 53.1 µM (active)

Cc1ccc(CNC(=O)c2ccc(Cn3cc(-c4ccc(C)cc4)nc3-c3ccncc3)cc2)cc1
EC50 [23]: < 0.1 µM (active) | EC50 [24]: 1.33 µM (active) | EC50 [25]: 0.656 µM (active) | EC50 [26]: > 12 µM (not active) | EC50 [27]: 1.12 µM (active) | EC50 [40]: < 0.1 µM (active)

COc1ccc(OC)c(NC(=O)CSc2ncnc3c2cnn3-c2ccccc2Cl)c1
IC50 [41]: 3.67 µM (active) | AC50 [42]: 2.15 µM (active)

CC(C)c1ccc(-n2cnn(-c3ncccc3[N+](=O)[O-])c2=O)cc1
EC50 [43]: > 67.5 µM (inactive) | EC50 [44]: > 67.5 µM (inactive) | EC50 [16]: > 260 µM (inactive)

COCC(=O)Nc1ccc2c(c1)C(=O)N(C)C[C@H](OC)[C@H](C)CN(Cc1cc(F)ccc1F)[C@@H](C)CO2
AC50 [28]: 1.84 µM (active) | AC50 [20]: 2.25 µM (active) | AC50 [29]: 13.1 µM (active) | AC50 [30]: > 100 µM (inactive) | AC50 [31]: 1.18 µM (active)

COc1ccc(-c2nc3ccccn3c2Cl)cc1
IC50 [15]: > 67.6 µM (inactive) | EC50 [17]: > 67.6 µM (inactive)

Cc1cc(N/C=C/C(=O)c2cccs2)ccc1F
EC50 [43]: > 67.6 µM (inactive) | EC50 [44]: > 67.6 µM (inactive)
